Measured values: the supplement of paper PMC10307832

Tests used:
Assay in all cases: relative viability (nuclei count vs DMSO), 5 days (fraction); higher = more cells survive
Bleomycin + Crizotinib = compound: CC1=C(N=C(N=C1N)[C@H](CC(=O)N)NC[C@@H](C(=O)N)N)C(=O)N[C@@H]([C@H](C2=CN=CN2)OC3C(C(C(C(O3)CO)O)O)OC4C(C(C(C(O4)CO)O)OC(=O)N)O)C(=O)N[C@H](C)[C@H]([C@H](C)C(=O)N[C@@H]([C@@H](C)O)C(=O)NCCC5=NC(=CS5)C6=NC(=CS6)C(=O)NCCC[S+](C)C)O [Bleomycin] + C[C@@H](Oc1cc(-c2cnn(C3CCNCC3)c2)cnc1N)c1c(Cl)ccc(F)c1Cl [Crizotinib] (partner 1 µM); settings: main component drawn
Summary of the method: (§1)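 Relative viability is defined as nuclei in treated wells over nuclei in vehicle wells. Duplicate plates were run and medians reported. Lung cancer cell lines in 1536-well plates were dosed by pin tool one day after seeding, with one drug or with a fixed anchor-drug dose plus five library-drug doses (not always all listed) in √10 steps, and nuclei were counted after 5 days.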

Etoposide + Luminespib = compound: COc1cc([C@@H]2c3cc4c(cc3[C@@H](O[C@@H]3O[C@@H]5CO[C@@H](C)O[C@H]5[C@H](O)[C@H]3O)[C@H]3COC(=O)[C@H]23)OCO4)cc(OC)c1O [Etoposide] + CCNC(=O)c1noc(-c2cc(C(C)C)c(O)cc2O)c1-c1ccc(CN2CCOCC2)cc1 [Luminespib] (partner 0.01 µM)
Summary of the method: as §1

Etoposide + Navitoclax = compound: COc1cc([C@@H]2c3cc4c(cc3[C@@H](O[C@@H]3O[C@@H]5CO[C@@H](C)O[C@H]5[C@H](O)[C@H]3O)[C@H]3COC(=O)[C@H]23)OCO4)cc(OC)c1O [Etoposide] + CC1(C)CCC(c2ccc(Cl)cc2)=C(CN2CCN(c3ccc(C(=O)NS(=O)(=O)c4ccc(N[C@H](CCN5CCOCC5)CSc5ccccc5)c(S(=O)(=O)C(F)(F)F)c4)cc3)CC2)C1 [Navitoclax] (partner 0.5 µM)
Summary of the method: as §1

Etoposide + Dasatinib = compound: COc1cc([C@@H]2c3cc4c(cc3[C@@H](O[C@@H]3O[C@@H]5CO[C@@H](C)O[C@H]5[C@H](O)[C@H]3O)[C@H]3COC(=O)[C@H]23)OCO4)cc(OC)c1O [Etoposide] + Cc1nc(Nc2ncc(C(=O)Nc3c(C)cccc3Cl)s2)cc(N2CCN(CCO)CC2)n1 [Dasatinib] (partner 0.075 µM)
Summary of the method: as §1

| Cell Line | relative viability (Bleomycin + Crizotinib; first compound 0.01 µM) | relative viability (Bleomycin + Crizotinib; first compound 0.03162 µM) | relative viability (Bleomycin + Crizotinib; first compound 0.1 µM) | relative viability (Bleomycin + Crizotinib; first compound 0.3162 µM) | relative viability (Bleomycin + Crizotinib; first compound 1 µM) | relative viability (Etoposide + Luminespib; first compound 0.01 µM) | relative viability (Etoposide + Luminespib; first compound 0.03162 µM) | relative viability (Etoposide + Luminespib; first compound 0.1 µM) | relative viability (Etoposide + Luminespib; first compound 0.3162 µM) | relative viability (Etoposide + Luminespib; first compound 1 µM) | relative viability (Etoposide + Navitoclax; first compound 0.03162 µM) | relative viability (Etoposide + Navitoclax; first compound 0.1 µM) | relative viability (Etoposide + Navitoclax; first compound 0.3162 µM) | relative viability (Etoposide + Navitoclax; first compound 1 µM) | relative viability (Etoposide + Dasatinib; first compound 0.01 µM) | relative viability (Etoposide + Dasatinib; first compound 0.03162 µM) | relative viability (Etoposide + Dasatinib; first compound 0.1 µM) | relative viability (Etoposide + Dasatinib; first compound 0.3162 µM) | relative viability (Etoposide + Dasatinib; first compound 1 µM) | relative viability (Etoposide + Navitoclax; first compound 0.01 µM) |
| --- | --- | --- | --- | --- | --- | --- | --- | --- | --- | --- | --- | --- | --- | --- | --- | --- | --- | --- | --- | --- |
| LCLC-97TM1 | 0.18 | 0.219 | 0.14 | 0.109 | 0.0966 | 0.788 | 0.78 | 0.465 | 0.175 | 0.154 | 0.62 | 0.327 | 0.178 | 0.141 | 0.858 | 0.943 | 0.933 | 0.681 | 0.179 | – |
| LK-2 | 0.237 | 0.216 | 0.213 | 0.229 | 0.273 | 0.206 | 0.181 | 0.154 | 0.195 | 0.159 | 0.945 | 0.643 | 0.498 | 0.267 | 0.248 | 0.297 | 0.275 | 0.301 | 0.181 | 0.815 |
| LOU-NH91 | 0.593 | 0.537 | 0.531 | 0.39 | 0.331 | 0.318 | 0.38 | 0.306 | 0.311 | 0.284 | 0.654 | 0.504 | 0.464 | 0.329 | 0.579 | 0.601 | 0.492 | 0.566 | 0.395 | 0.695 |
| LU99A | 0.344 | 0.358 | 0.284 | 0.12 | 0.16 | 0.279 | 0.255 | 0.246 | 0.22 | 0.217 | 0.898 | 0.45 | 0.311 | 0.189 | 0.427 | 0.727 | 0.262 | 0.395 | 0.142 | 0.828 |
| LXF-289 | 0.725 | 0.678 | 0.679 | 0.239 | 0.149 | 0.569 | 0.861 | 0.79 | 0.367 | 0.129 | 0.971 | 0.984 | 0.605 | 0.174 | 0.209 | 0.217 | 0.231 | 0.206 | 0.0795 | 0.977 |
| NCI-H23 | 0.249 | 0.231 | 0.251 | 0.162 | 0.153 | 0.23 | 0.204 | 0.207 | 0.212 | 0.246 | 0.816 | 0.502 | 0.421 | 0.254 | 0.805 | 0.821 | 0.504 | 0.384 | 0.185 | 0.733 |
| NCI-H322M | 0.701 | 0.852 | 0.908 | 0.958 | 0.527 | 0.789 | 0.846 | 0.553 | 0.486 | 0.392 | 1.37 | 1.01 | 0.886 | 0.574 | 0.272 | 0.237 | 0.232 | 0.26 | 0.254 | 1.29 |
| NCI-H441 | – | 0.534 | 0.469 | 0.363 | 0.398 | 0.307 | 0.28 | 0.331 | 0.259 | 0.256 | 0.633 | 0.571 | 0.168 | 0.189 | 0.58 | 0.677 | 0.398 | 0.285 | 0.147 | 0.535 |
| NCI-H460 | 0.331 | 0.0828 | 0.0648 | 0.0162 | 0.0149 | 0.0412 | 0.0382 | 0.0395 | 0.0281 | 0.0302 | 0.796 | 0.6 | 0.0627 | 0.0154 | 0.432 | 0.509 | 0.285 | 0.132 | 0.0414 | 0.93 |
| NCI-H520 | 0.531 | 0.898 | 0.735 | 0.505 | 0.4 | 0.204 | 0.198 | – | 0.218 | 0.219 | 1 | 1.08 | 0.951 | 0.956 | 0.22 | 0.239 | 0.181 | 0.208 | 0.269 | 0.985 |
| NCI-H596 | 0.896 | 0.661 | 0.558 | 0.409 | 0.475 | 1.01 | 0.883 | 0.986 | 0.771 | 0.681 | 0.989 | – | 0.87 | 0.642 | 0.608 | 0.657 | 0.543 | 0.647 | 0.507 | 0.977 |
| NCI-H647 | 0.313 | 0.326 | 0.213 | 0.135 | 0.109 | 0.134 | 0.164 | 0.164 | 0.134 | 0.0949 | 1.18 | 0.961 | 0.261 | 0.241 | 0.157 | 0.161 | 0.174 | 0.145 | 0.036 | 0.936 |
| NCI-H727 | 0.763 | 0.731 | 0.634 | 0.411 | 0.489 | 0.53 | 0.294 | – | 0.3 | 0.418 | 0.553 | 0.369 | 0.488 | 0.319 | 0.4 | 0.355 | – | 0.37 | 0.408 | 0.439 |
| NCI-H838 | 0.437 | 0.32 | 0.184 | 0.176 | 0.172 | 0.394 | 0.31 | 0.272 | 0.162 | 0.194 | 1.14 | 1.19 | 0.705 | 0.338 | 0.338 | 0.295 | 0.219 | 0.271 | 0.285 | 1.09 |
| NCI-H1355 | 0.948 | 1.03 | 0.926 | 0.538 | 0.298 | 0.635 | 0.765 | 0.403 | 0.338 | 0.201 | 1.17 | 0.479 | 0.684 | 0.323 | 0.673 | 0.692 | 0.376 | 0.622 | 0.251 | 0.881 |
